Patent US20220177841A1, “EX VIVO METHODS FOR PRODUCING A T CELL THERAPEUTIC AND RELATED COMPOSITIONS AND METHODS” (Myst Therapeutics LLC, priority 2019, published 2022)
Entries after “also recorded” stand apart in the source; their conditions may differ. Peptide text beside a SMILES is read from it. * marks the point of attachment. Cbz = O=C(OCc1ccccc1)*; CH2F = FC*

What was measured:
[1] = test system: expanded human T cells from three healthy donors; assay: T cell adjuvant high throughput screen, total viable CD3+ cell count; type: cell-based; conditions: 6 days; for total viable CD3+ cell count compared with DMSO treatment control: 10 μg/mL antibodies, 25 μM Z-VAD-FMK, irrespective of activation status (with or without OKT3)
Experimental: Cells were expanded from PBMC derived from Ficoll gradient separation from three healthy donor's apheresis material. […] Cells were next seeded into gas permeable 100M culture vessels and expanded for 7-14 days to achieve a large bank of T cells, and cryopreserved. […] Half of wells were additionally supplemented with 50 ng/mL OKT3, a human anti-CD3 monoclonal antibody. In total, 15 test adjuvant agents were tested for their impact on cell viability in the presence and absence of anti-CD3 activation (see Table E3). Cells were cultured for 6 days total, including a 50% medium exchange on culture day 3, and monitored for total viable CD3+ cell count.
Total viable CD3+ cell count for cells grown in the absence and presence of OKT3 stimulation are shown in FIGS. 27A-C and FIGS. 28A-C, respectively. The results shown are for the following concentrations of adjuvant: 10 μg/mL for tested antibodies (Tavolixizumab, Oxelumab, Ipilimumab, Tocilizumab, Urelumab, Pembrolizumab, Varlilumab, anti-GITR MK-1248, anto-human FasL); 25 μM for Z-VAD-FMK pan-caspase inhibitor; 250 nM for HSP inhibitor NVP-HSP990; and 1000 IU/mL for cytokine (IL-7, IL-15 or IL-21).

[2] = test system: PBMC from three healthy donors; assay: T cell expansion with Fas ligand or caspase inhibition, anti-CD3 stimulation; type: cell-based, human; conditions: OKT3 activation, caspase inhibitor 2 μM present continuously, replenished each media exchange
Experimental: (§1) Apoptotic inhibitors directed against Fas- and caspase-mediated pathways were assessed to determine effects on tumor reactive T cells during manufacturing. The studies were carried out in healthy donors, and thus, stimulation of the T cells were carried out with anti-CD3 (OKT3) or anti-CD3/anti-CD28 stimulation in order to mimic conditions present in the tumor microenvironment (TME). Constant activation signals present in the tumor microenvironment, as can be stimulated by anti-CD3 or anti-CD3/anti-CD28 activation can be detrimental to T cell growth. Cellular viability and projected cell numbers were used to compare the impact of modulation of apoptotic pathways in both a transient and a continuous activation assay, the latter of which more closely recapitulates the tumor microenvironment.
Immune Cell Serum Replacement (ThermoFisher) at 5%, and a final concentration of 2.0 mM of a L-alanyl-L-glutamine dipeptide form of glutamine (GlutaMAX Supplement; Thermofisher). Cells were then seeded into a 24-well gas permeable cell culture plate at a density of 2.14×10^5 cells/mL (7.5×10^5 cells/cm^2). […]
Cultures were maintained for at least 13 days with a 50% media exchange every other day beginning on culture day 2. Cell counts and viability were monitored every other day. […]

[3] = test system: PBMC from two healthy donors; assay: T cell expansion with Fas ligand or caspase inhibition, anti-CD3/anti-CD28 stimulation (transient or continuous activation); type: cell-based, human; conditions: 2 μM
Experimental: as §1
Cells were then seeded into a 24-well gas permeable cell culture plate at a density of 1.5×10^5 cells/mL (5.0×10^5cells/cm^2).
Culture wells were assigned to one of two treatment groups, transient or continuous activation. For transient activation, anti-CD3/anti-CD28 paramagnetic beads (Dyanbeads™) were added to the culture media at a ratio of 1 bead per cell starting on culture day 0, and then were removed during media exchange on day 2. […]
Cell counts and viability were monitored every other day. […]

[4] = test system: CRC tumor fragment and SCS cultures; assay: Caspase inhibition in tumor processing, fragment or SCS cultures; type: cell-based, human
Experimental: Half of cultures contained media additionally supplemented with 2 μM of pan-caspase inhibitor Z-VAD-FMK which was replenished at each media exchange. Cultures were incubated at about 37° C. for a minimum of 18 days with a 50% medium exchange occurring every 2-3 days following culture day 5. Cell counts were performed on day 5 and at each medium exchange using the NC-200 Automated Cell Counter (ChemoMetec).

[5] = test system: cells processed from melanoma tumor fragments; assay: Anti-CD3 stimulation on expansion of tumor-derived cells; type: cell-based, human
Experimental: Cells processed from melanoma tumor fragments as described in Examples 1 and 2, were cultured in the presence or absence of 50 ng/mL OKT3, a human anti-CD3 monoclonal antibody. Cell cultures were carried out to between 14 and 31 days in either a conventional 6-well plate or a gas permeable culture plate with RPMI or OpTmizer media. […] About 50% of cellular media was exchanged every other day beginning on the 5th day of culture as described previously. Cells were then counted using the NC-200 Automated Cell Counter (Chemometec).

[6] = test system: T-cells from three healthy donors; assay: Post-stimulation CD4+ and CD8+ activation markers, flow cytometry; type: cell-based, human; conditions: 50 ng/mL OKT3, compared to culture in the absence of OKT3
Experimental: Specific markers of activation on the CD4+ and CD8+ cell populations were measured using flow cytometry over a time course of 3-48 hours. Specifically, the following markers were assessed: CD38 and CD39 (FIG. 12A and FIG. 13A), CD134 and CD137 (FIG. 12B and FIG. 13B), and CD69 and CD90 (FIG. 12C and FIG. 13C).

[7] = test system: PBMC from two healthy donors; assay: Checkpoint modulators and costimulatory agonist antibodies on T cell phenotype, flow cytometry; type: cell-based, human; conditions: 0.5, 1, 10, or 20 μg/mL; 50 ng/ml OKT3; 48 hours
Experimental: Cells were then seeded into a 24-well gas permeable cell culture plate at a density of 5.0×10^5 cells/cm^2. Cells were activated for 48 hours using 50 ng/ml OKT3, a human anti-CD3 monoclonal antibody, and were additionally treated with agents as described below. Following 48 hours in culture, cells were analyzed for phenotype.
Cells were divided into 6 treatment groups, as follows: Ipilimumab (anti-CTLA4), Pembrolizumab (anti-PD1), Tavolixizumab (anti-TNFRSF4), Urelumab (anti-CD137), and Varlilumab (anti-CD27), as well as a no added agent control. For all test groups, cells in each treatment group were cultured in the presence of the monoclonal antibodies at 0.5, 1, 10, or 20 μg/mL.
None of the tested antibodies appeared to affect the memory differentiation state of the T cells. T cell phenotype was assessed for CD4+and CD8+cells independently via flow cytometry for markers of activation OX40, 41BB, CD107a, and PD1. Results are shown in FIG. 38 (CD3+), FIG. 39 (CD4+) and FIG. 40 (CD8+). Higher concentrations of Varlilumab, an agonist anti-CD27 antibody, promoted 41BB and CD107a expression on CD3+ T cells (FIG. 38B and 38C), CD4+ T cells (FIG. 39B and 39C) and CD8+ T cells (FIGS. 40B and 40C). Urelumab, an agonist CD137 receptor antibody, promoted 41BB expression on CD4 T cells (FIG. 39B) and CD8+ T cells (FIG. 40B). Pembrolizumab, an anti-PD-1 antagonist, decreased PD1 expression on CD4 T cells (FIG. 39D)

[8] = presence versus absence of 50 ng/mL OKT3, 14 to 31 days

COC(=O)C[C@H](NC(=O)[C@H](C)NC(=O)[C@@H](NC(=O)OCc1ccccc1)C(C)C)C(=O)CF [Z-VAD-FMK, carbobenzoxy-valyl-alanyl-aspartyl-[O-methyl]-fluoromethylketone] (Cbz-Val-Ala-Asp(OMe)-CH2F)
total viable CD3+ cell count compared with DMSO treatment control [1]: consistently higher viable cell counts than the DMSO treatment control | cell growth (total cell number) [2]: greatest cell growth across donors | cell growth (total cell number) ([2]; listed as caspase inhibition): superior growth | total viable cell number and viability versus other conditions ([3]; caspase inhibitor continuously): outperformed the other conditions | total viable cell number and viability versus other conditions ([3]; caspase inhibitor transiently (day 0 only)): outperformed the other conditions | outgrowth of T cells ([4]; SCS conditions): outgrowth of T cells was not observed | cell viability ([4]; SCS culture, 2 μM replenished at each media exchange): similarly high | cell viability ([4]; tumor fragment-derived culture, 2 μM replenished at each media exchange): high | outgrowth of cells (fold expansion, total viable cells) ([4]; tumor fragment-derived culture, 2 μM replenished at each media exchange, minimum 18 days): outgrowth of cells was superior

IL-15: recombinant cytokine tested as T cell adjuvant
dose response, cell number ([1]; 62.5 IU/ml-1000 IU/ml): cell number increased with increasing concentration

OKT3: human anti-CD3 monoclonal antibody
T cell expansion ([5]; 50 ng/mL OKT3, 14 to 31 days, 300 or 6000 IU/mL IL-2): supported T cell expansion | fold expansion ([5]; donor 6, all conditions, presence or absence of anti-CD3 stimulation): 2-4 fold | fold expansion [5, 8]: largely similar; also recorded: did not substantially impact | total cell number [5, 8]: largely similar; also recorded: did not substantially impact | upregulation of activation markers (CD38, CD39, CD134, CD137, CD69, CD90) on CD8+ T cells ([6]; 48 hours following stimulation): all assessed markers were upregulated to some extent | upregulation of activation markers (CD38, CD39, CD134, CD137, CD69, CD90) on CD4+ T cells ([6]; first 48 hours following stimulation): all assessed markers were upregulated to some extent

Oxelumab: anti-OX40L antibody
total viable CD3+ cell count compared with DMSO treatment control [1]: consistently higher viable cell counts than the DMSO treatment control

Pembrolizumab: anti-PD1 antibody
total viable CD3+ cell count compared with DMSO treatment control [1]: consistently higher viable cell counts than the DMSO treatment control | PD1 expression on CD4 T cells [7]: decreased

Urelumab: agonist CD137 receptor antibody
41BB expression on CD4+ T cells [7]: promoted | 41BB expression on CD8+ T cells [7]: promoted

Varlilumab: agonist anti-CD27 antibody
41BB expression on CD3+ T cells [7]: promoted | 41BB expression on CD4+ T cells [7]: promoted | 41BB expression on CD8+ T cells [7]: promoted | CD107a expression on CD3+ T cells [7]: promoted | CD107a expression on CD4+ T cells [7]: promoted | CD107a expression on CD8+ T cells [7]: promoted
